Measured values: patent publication US12485187B2, “Method for improving retroviral transduction and gene editing in hematopoietic stem cells using clyclosporin H and UM171” (Ospedale San Raffaele S.R.L, priority 2017, dated 2025)

Key:
human HSPCs = assay: Colony-forming cell assay; format: cell-based
Procedure: Colony-forming cell assays were performed by plating 8×10^2 human HSPCs transduced in the presence of the different compounds in a methylcellulose-based medium (Methocult GF4434; Stem Cell Technologies). Fifteen days later colonies were scored by light microscopy for colony numbers and morphology. CFU-E and BFU-E were scored as erythroid colonies, while CFU-G, CFU-M and CFU-GM and CFU-GEMM were scored as myeloid colonies. Moreover, single colonies were plucked for molecular analysis.

human CD34+ HSPCs = details: for effect on LV transduction of combining the compound with CsH: hCB- and mPB-derived HSPC, LV MOI 1 or 10
CB-derived CD34+ HSPCs = details: Wang et al. 2014; cited from earlier work

| Structure (SMILES) | colony-forming capacity (human HSPCs; mPB-CD34+ cells, IDUA-LV MOI 50, vs control) | effect on LV transduction of combining the compound with CsH (human CD34+ HSPCs) | LV integration site profile in human HSPCs (CB-derived CD34+ HSPCs) | colony-forming capacity (human HSPCs; BM-derived CD34+ cells transduced with IDUA or ARSA LV) | VCN in vitro (human CD34+ HSPCs; BM-derived CD34+ cells, single hit IDUA/ARSA-LV vs two-hit standard (MOI 100)) | transduction efficiency of clinical-grade IDUA and ARSA-LV (human CD34+ HSPCs; BM-derived CD34+ cells, single hit vs one-hit control without drugs) |
| --- | --- | --- | --- | --- | --- | --- |
| CCCCC[C@H](O)/C=C/[C@H]1[C@H](O)CC(=O)[C@@H]1C/C=C\CCCC(=O)O [prostaglandin E2, Prostaglandin E2, reference compound] | No differences in colony-forming capacity | additive |  |  |  |  |
| CO[C@H]1C[C@@H]2CC[C@@H](C)[C@@](O)(O2)C(=O)C(=O)N2CCCC[C@H]2C(=O)O[C@H]([C@H](C)C[C@@H]2CC[C@@H](O)[C@H](OC)C2)CC(=O)[C@H](C)/C=C(\C)[C@@H](O)[C@@H](OC)C(=O)[C@H](C)C[C@H](C)/C=C/C=C/C=C/1C [rapamycin, Rapamycin, reference compound] |  | additive | not to impact the LV integration site profile in human HSPCs | no alterations in colony-forming capacity were observed | comparable to the two-hit gold standard | able to increase transduction efficiency |
